Reference: patent US9149038B2, “4-amino-6-(heterocyclic)picolinates and 6-amino-2-(heterocyclic)pyrimidine-4-carboxylates and their use as herbicides” (Dow AgroSciences LLC, priority 2013, dated 2015)
Read-outs that look alike come from different tables or passages of the source.

Tests used:
[1] = system: Key Broadleaf Weed and Crop Species; experiment: Post-Emergent Test II: postemergent herbicidal activity, visual rating after 14 d (Table 7); type: in vivo; conditions: post-emergence, 336 h; for pest or weed control at 35 g/ha: 35 g ai/ha; for pest or weed control at 70 g/ha: 70 g ai/ha; for pest or weed control at 140 g/ha: 140 g ai/ha
Method in brief: (§1)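 Plants were raised in a greenhouse for 7-21 d and treated once at the first or second true leaf stage. Compounds, dissolved in 97:3 acetone:DMSO then diluted into an aqueous acetone/isopropanol/crop oil/Triton X-155 carrier, were applied by overhead track sprayer at 187 L/ha. After 14 d with subirrigation, injury was scored visually from 0 (none) to 100 (complete kill).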

[2] = system: Key Grass and Sedge Weeds as well as Grass Crops; experiment: Post-Emergent Test II: postemergent herbicidal activity, visual rating after 14 d (Table 8); type: in vivo; conditions: post-emergence, 336 h; for pest or weed control at 35 g/ha: 35 g ai/ha; for pest or weed control at 70 g/ha: 70 g ai/ha; for pest or weed control at 140 g/ha: 140 g ai/ha
Method in brief: as §1

[3] = lambsquarters (Chenopodium album), read-out: Visual Growth Reduction (%) 14 Days After Application CHEAL
[4] = oilseed rape, canola (Brassica napus), read-out: Visual Growth Reduction (%) 14 Days After Application BRSNN
[5] = redroot pigweed (Amaranthus retroflexus), read-out: Visual Growth Reduction (%) 14 Days After Application AMARE
[6] = sunflower (Helianthus annuus), read-out: Visual Growth Reduction (%) 14 Days After Application HELAN
[7] = velvetleaf (Abutilon theophrasti), read-out: Visual Growth Reduction (%) 14 Days After Application ABUTH
[8] = wild poinsettia (Euphorbia heterophylla), read-out: Visual Growth Reduction (%) 14 Days After Application EPHHL
[9] = barnyardgrass (Echinochloa crus-galli), read-out: Visual Growth Reduction (%) 14 Days After Application ECHCG
[10] = giant foxtail (Setaria faberi), read-out: Visual Growth Reduction (%) 14 Days After Application SETFA
[11] = maize, corn (Zea mays), read-out: Visual Growth Reduction (%) 14 Days After Application ZEAMX
[12] = rice (Oryza sativa), read-out: Visual Growth Reduction (%) 14 Days After Application ORYSA
[13] = wheat, spring (Triticum aestivum), read-out: Visual Growth Reduction (%) 14 Days After Application TRZAS
[14] = yellow nutsedge (Cyperus esculentus), read-out: Visual Growth Reduction (%) 14 Days After Application CYPES

Compound: COC(=O)c1nc(-c2ccc3c(c2)OC(F)(F)O3)c(F)c(N)c1OC [Compound 24]
- pest or weed control at 35 g/ha [1, 3]: 0 to 29%
- pest or weed control at 70 g/ha [1, 3]: 0 to 29%
- pest or weed control at 140 g/ha [1, 3]: 0 to 29%
- pest or weed control at 35 g/ha [1, 4]: 0 to 29%
- pest or weed control at 70 g/ha [1, 4]: 0 to 29%
- pest or weed control at 140 g/ha [1, 4]: 0 to 29%
- pest or weed control at 35 g/ha [1, 5]: 0 to 29%
- pest or weed control at 70 g/ha [1, 5]: 0 to 29%
- pest or weed control at 140 g/ha [1, 5]: 0 to 29%
- pest or weed control at 35 g/ha [1, 6]: 0 to 29%
- pest or weed control at 70 g/ha [1, 6]: 0 to 29%
- pest or weed control at 140 g/ha [1, 6]: 0 to 29%
- pest or weed control at 35 g/ha [1, 7]: 0 to 29%
- pest or weed control at 70 g/ha [1, 7]: 0 to 29%
- pest or weed control at 140 g/ha [1, 7]: 0 to 29%
- pest or weed control at 35 g/ha [1, 8]: 75 to 84%
- pest or weed control at 70 g/ha [1, 8]: 95 to 100%
- pest or weed control at 140 g/ha [1, 8]: 95 to 100%
- pest or weed control at 35 g/ha [2, 9]: 60 to 74%
- pest or weed control at 70 g/ha [2, 9]: 85 to 94%
- pest or weed control at 140 g/ha [2, 9]: 95 to 100%
- pest or weed control at 35 g/ha [2, 10]: 0 to 29%
- pest or weed control at 70 g/ha [2, 10]: 0 to 29%
- pest or weed control at 140 g/ha [2, 10]: 0 to 29%
- pest or weed control at 35 g/ha [2, 11]: 60 to 74%
- pest or weed control at 70 g/ha [2, 11]: 75 to 84%
- pest or weed control at 140 g/ha [2, 11]: 75 to 84%
- pest or weed control at 35 g/ha [2, 12]: 0 to 29%
- pest or weed control at 70 g/ha [2, 12]: 0 to 29%
- pest or weed control at 140 g/ha [2, 12]: 0 to 29%
- pest or weed control at 35 g/ha [2, 13]: 0 to 29%
- pest or weed control at 70 g/ha [2, 13]: 0 to 29%
- pest or weed control at 140 g/ha [2, 13]: 30 to 44%
- pest or weed control at 35 g/ha [2, 14]: 95 to 100%
- pest or weed control at 70 g/ha [2, 14]: 95 to 100%
- pest or weed control at 140 g/ha [2, 14]: 95 to 100%

Compound: COc1c(C(=O)O)nc(-c2ccc3c(c2)OC(F)(F)O3)c(F)c1N [Compound 25]
- pest or weed control at 35 g/ha [1, 3]: 0 to 29%
- pest or weed control at 70 g/ha [1, 3]: 0 to 29%
- pest or weed control at 140 g/ha [1, 3]: 45 to 59%
- pest or weed control at 35 g/ha [1, 4]: 75 to 84%
- pest or weed control at 70 g/ha [1, 4]: 95 to 100%
- pest or weed control at 140 g/ha [1, 4]: 95 to 100%
- pest or weed control at 35 g/ha [1, 5]: 0 to 29%
- pest or weed control at 70 g/ha [1, 5]: 0 to 29%
- pest or weed control at 140 g/ha [1, 5]: 0 to 29%
- pest or weed control at 35 g/ha [1, 6]: 0 to 29%
- pest or weed control at 70 g/ha [1, 6]: 0 to 29%
- pest or weed control at 140 g/ha [1, 6]: 0 to 29%
- pest or weed control at 35 g/ha [1, 7]: 45 to 59%
- pest or weed control at 70 g/ha [1, 7]: 60 to 74%
- pest or weed control at 140 g/ha [1, 7]: 75 to 84%
- pest or weed control at 35 g/ha [1, 8]: 95 to 100%
- pest or weed control at 70 g/ha [1, 8]: 95 to 100%
- pest or weed control at 140 g/ha [1, 8]: 95 to 100%
- pest or weed control at 35 g/ha [2, 9]: 85 to 94%
- pest or weed control at 70 g/ha [2, 9]: 85 to 94%
- pest or weed control at 140 g/ha [2, 9]: 95 to 100%
- pest or weed control at 35 g/ha [2, 10]: 45 to 59%
- pest or weed control at 70 g/ha [2, 10]: 60 to 74%
- pest or weed control at 140 g/ha [2, 10]: 60 to 74%
- pest or weed control at 35 g/ha [2, 11]: 60 to 74%
- pest or weed control at 70 g/ha [2, 11]: 75 to 84%
- pest or weed control at 140 g/ha [2, 11]: 75 to 84%
- pest or weed control at 35 g/ha [2, 12]: 0 to 29%
- pest or weed control at 70 g/ha [2, 12]: 30 to 44%
- pest or weed control at 140 g/ha [2, 12]: 60 to 74%
- pest or weed control at 35 g/ha [2, 13]: 45 to 59%
- pest or weed control at 70 g/ha [2, 13]: 45 to 59%
- pest or weed control at 140 g/ha [2, 13]: 60 to 74%
- pest or weed control at 35 g/ha [2, 14]: 95 to 100%
- pest or weed control at 70 g/ha [2, 14]: 95 to 100%
- pest or weed control at 140 g/ha [2, 14]: 95 to 100%
